Source: patent US9126999B2, “Tetrahydropyrazolopyrimidine compounds” (EISAI R&D MANAGEMENT CO., LTD., priority 2012, dated 2015)

Experiments:
[1] = test system: mouse lupus disease models; test: SLE disease models, summary of findings; type: in vivo; settings: summary over lupus models
Method: Male BXSB-Yaa and female NZBWF1/J mice were purchased from Jackson Labs (Bar Harbor, Me.), both of which manifest with spontaneous lupus disease. Female DBA/1 mice were purchased from Harlan Laboratories (Indianapolis, Ind.) and at the indicated ages given an intraperitoneal injection of 0.5 ml pristane (2,6,10,14-Tetramethylpentadecane; Sigma, St. Louis, Mo.) to chemically induce lupus disease or of 0.5 ml PBS to generate age-matched, non-diseased control mice. Mice were dosed daily by oral administration of compound or drug in 0.5% methylcellulose, for the time period indicated.

Mouse TLR7 = molecular target: T1, Mouse TLR7 (Mus musculus, UniProt P58681); test: Short-term in vivo (STIV) assay: plasma IL-6 after s.c. R848
T1 construct: endogenous in cells; host or cells: female BALB/c mice, in vivo
T1 sequence (P58681 27-1050): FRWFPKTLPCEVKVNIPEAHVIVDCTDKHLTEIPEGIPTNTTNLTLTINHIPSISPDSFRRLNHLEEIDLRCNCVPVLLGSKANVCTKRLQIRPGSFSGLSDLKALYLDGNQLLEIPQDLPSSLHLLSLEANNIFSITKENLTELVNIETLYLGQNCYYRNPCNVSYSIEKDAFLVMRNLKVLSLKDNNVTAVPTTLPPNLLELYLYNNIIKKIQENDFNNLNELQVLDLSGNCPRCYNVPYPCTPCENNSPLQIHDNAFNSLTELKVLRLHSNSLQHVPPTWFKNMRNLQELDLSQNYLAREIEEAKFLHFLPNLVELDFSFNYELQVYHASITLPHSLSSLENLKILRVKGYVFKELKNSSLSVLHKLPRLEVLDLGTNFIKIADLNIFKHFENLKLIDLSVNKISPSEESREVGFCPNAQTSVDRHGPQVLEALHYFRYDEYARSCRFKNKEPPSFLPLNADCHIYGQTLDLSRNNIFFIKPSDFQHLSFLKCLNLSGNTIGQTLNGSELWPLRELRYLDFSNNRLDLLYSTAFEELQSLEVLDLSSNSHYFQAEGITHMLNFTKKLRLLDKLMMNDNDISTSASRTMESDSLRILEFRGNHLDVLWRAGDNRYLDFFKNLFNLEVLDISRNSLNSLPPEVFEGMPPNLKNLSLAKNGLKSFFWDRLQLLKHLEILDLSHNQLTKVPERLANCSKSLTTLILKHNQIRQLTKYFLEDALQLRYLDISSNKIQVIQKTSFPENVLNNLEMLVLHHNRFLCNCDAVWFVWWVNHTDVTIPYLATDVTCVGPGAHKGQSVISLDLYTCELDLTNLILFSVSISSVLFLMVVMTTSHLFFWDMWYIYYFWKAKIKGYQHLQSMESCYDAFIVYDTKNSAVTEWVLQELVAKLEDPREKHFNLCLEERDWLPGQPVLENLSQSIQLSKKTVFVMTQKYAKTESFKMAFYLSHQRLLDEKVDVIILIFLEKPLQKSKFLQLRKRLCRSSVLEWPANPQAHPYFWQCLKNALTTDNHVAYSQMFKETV
Method: Figure Legend: Female BALB/c mice were dosed by oral gavage with Vehicle alone (0.5% aqueous methyl-cellulose) or compound ER-892887 formulated in Vehicle at 100 mg/kg or 300 mg/kg. At 13 or 24 hours following oral dosing, mice were injected subcutaneously with 15 ug R848 to stimulate TLR7. Blood plasma was collected by cardiac puncture, and the IL-6 level at 1.5 hours after TLR7 stimulation was then assessed by standard ELISA procedure. Percent suppression indicated is relative to IL-6 induction following Vehicle control dosing. Statistical significance was determined by Mann-Whitney test.
To assess compound potency in vivo against mouse TLR7, a short-term in vivo (STIV) assay was utilized. Briefly, mice were orally dosed with compounds and at various time points afterwards were injected subcutaneously with agonist R848 to stimulate TLR7. The plasma IL-6 level following R848 stimulation was then measured by ELISA to assess compound potency and duration-of-action. […] Therefore, the activity of compounds in the STIV assay can be confidently attributed to their modulation of the TLR7 pathway. A single oral dose of ER-892887 at 300 mg/kg suppresses the R848/TLR7/IL-6 pathway in vivo by 80-90% for at least 24 hours (see FIG. 1).
Six to eight week old female BALB/c mice (Jackson Labs, Bar Harbor, Me.) were dosed by oral gavage in 200 ul volume with antagonist compounds formulated in 0.5% aqueous methyl-cellulose (Sigma, St. Louis, Mo.). At various time points afterwards, mice were injected subcutaneously (s.c.) in 100 ul volume with 15 ug R848 (Resiquimod; GLSynthesis, Worcester, Mass.) to stimulate TLR7. Blood plasma was collected by cardiac puncture, and levels of IL-6 at 1.5 hours after TLR7 stimulation were then assessed by standard ELISA procedure according to the manufacturer's recommended protocol (R&D Systems).

[2] = time point 6 hr, dose 33 mg/kg oral
[3] = time point 6 hr, dose 100 mg/kg oral
[4] = time point 13 hr, dose 33 mg/kg oral
[5] = time point 13 hr, dose 100 mg/kg oral

% Suppression vs. Vehicle (Mouse TLR7; time point 19 hr, dose 100 mg/kg oral) [%]	% Suppression vs. Vehicle (Mouse TLR7; time point 19 hr, dose 300 mg/kg oral) [%]	Structure (SMILES)	kidney disease as manifested by proteinuria and histologic changes [1]	production of several autoantibody specificities [1]	suppression of the R848/TLR7/IL-6 pathway in vivo (Mouse TLR7; single oral dose 300 mg/kg)	duration of suppression of the R848/TLR7/IL-6 pathway in vivo (Mouse TLR7; single oral dose 300 mg/kg, 80-90% suppression)	% Suppression vs. Vehicle (Mouse TLR7; [2]) [%]	% Suppression vs. Vehicle (Mouse TLR7; [3]) [%]	% Suppression vs. Vehicle (Mouse TLR7; time point 13 hr, dose 11 mg/kg oral) [%]	% Suppression vs. Vehicle (Mouse TLR7; [4]) [%]	% Suppression vs. Vehicle (Mouse TLR7; [5]) [%]	% Suppression vs. Vehicle (Mouse TLR7; time point 13 hr, dose 300 mg/kg oral) [%]	% Suppression vs. Vehicle (Mouse TLR7; time point 24 hr, dose 33 mg/kg oral) [%]	% Suppression vs. Vehicle (Mouse TLR7; time point 24 hr, dose 100 mg/kg oral) [%]	% Suppression vs. Vehicle (Mouse TLR7; time point 24 hr, dose 300 mg/kg oral) [%]
56	100	COc1ccc([C@@H]2C[C@H](C(F)(F)F)n3nc(-c4ccncc4)cc3N2)cc1OC [ER-885454]	suppressed	limited	–	–	–	–	–	–	–	–	–	–	–
–	–	COc1ccc([C@@H]2C[C@H](C(F)(F)F)n3nc(-c4ccc(C(=O)N5CCNCC5)cc4)cc3N2)cc1OC [ER-892887, (4-((5S,7R)-5-(3,4-dimethoxyphenyl)-7-(trifluoromethyl)-4,5,6,7-tetrahydropyrazolo[1,5-a]pyrimidin-2-yl)phenyl)(piperazin-1-yl)methanone]	suppressed	limited	80-90%	at least 24 hours	83	100	27	12	49	90	0	12	86
–	–	Cc1nn(C)cc1[C@@H]1C[C@H](C(F)(F)F)n2nc(-c3ccc(NC(N)=O)cc3)cc2N1 [ER-894595]	–	–	–	–	0	57	–	0	0	–	–	–	–
